Results as given in patent publication US9487504B2, “Imidazolyl analogs as syk inhibitors” (Merck Sharp & Dohme Corp., priority 2012, dated 2016).
Read-outs that look alike come from different tables or passages of the source.

Molecular target: T1, recombinant human GST-Syk (Homo sapiens, UniProt P43405)
T1 construct: purchased Carna Biosciences 08-176
Assay: Homogeneous Time-Resolved Fluorescence (HTRF) assay for the recombinant human Syk enzyme
Assay type: biochemical
Settings: ATP 25 μM, 10-dose titration
Method: Syk inhibition may be determined using the following assay protocol:
Homogeneous Time-Resolved Fluorescence (HTRF) Assay for the Recombinant Human Syk Enzyme:
A recombinant GST-hSyk fusion protein was used to measure potency of compounds to inhibit human Syk activity. The recombinant human GST-Syk (Carna Biosciences #08-176) ([…]) was incubated with various concentrations of the inhibitor diluted in DMSO (0.1% final concentration) for 10 minutes at room temperature in 15 mM Tris-HCl (pH 7.5), 0.01% tween 20, 2 mM DTT in 384 well plate format. To initiate the reaction the biotinylated substrate peptide (250 nM final concentration) that contains the phosphorylation site for Syk was added with magnesium (5 mM final concentration) and ATP (25 μM final concentration). Final volume of the reaction was 10 μL. Phosphorylation of the peptide was allowed to proceed for 45 minutes at room temperature. To quench the reaction and detect the phosphorylated product, 2 nM of a Europium-anti-phosphotyrosine antibody (Perkin Elmer #AD0161) and 70 nM SA-APC (Perkin-Elmer #CR130-100) were added together in 15 mM Tris pH 7.5, 40 mM EDTA, 0.01% tween 20. Final volume of the quenching solution was 10 μL. The resulting HTRF signal was measured after 30 minutes on an EnVision (Perkin-Elmer) reader using a time-resolved fluorescence protocol. IC50 was determined following 10-dose titration (10 μM to 0.508 nM) and four parameter logistic curve fitting using the Merck Assay Data Analyzer. The rhSyk activity (IC50) is expressed as +++ (100 nM or less), ++ (between 100 and 1000 nM), + (between 1 and 10 μM).

Row | SMILES | IC50 (read-out: rhSYK Activity) [nM] | IC50 (read-out: rhSYK IC50) [nM]
1 | Cc1cc(Nc2cc(C3CC3)ccn2)nc(-n2cnc([C@]3(O)CC[C@@H](O)CC3)c2)c1 [Example 45, cis-1-(1-{6-[(4-cyclopropylpyridin-2-yl)amino]-4-methylpyridin-2-yl}-1H-imidazol-4-yl)cyclohexane-1,4-diol] | ≤ 100 | 1.38
2 | Cc1ccnc(Nc2cc(C)cc(-n3cnc([C@]4(O)CC[C@@H](O)CC4)c3)n2)c1 [Example 46, cis-1-(1-{4-methyl-6-[(4-methylpyridin-2-yl)amino]pyridin-2-yl}-1H-imidazol-4-yl)cyclohexane-1,4-diol] | ≤ 100 | 
3 | Cc1cc(Nc2cc(C(C)(C)C)ccn2)nc(-n2cnc([C@]3(O)CC[C@@H](O)CC3)c2)c1 [Example 47, cis-1-(1-{6-[(4-tert-butylpyridin-2-yl)amino]-4-methylpyridin-2-yl}-1H-imidazol-4-yl)cyclohexane-1,4-diol] | ≤ 100 | 
4 | Cc1cc(Nc2cc(C)c(F)cn2)nc(-n2cnc([C@]3(O)CC[C@@H](OC(=O)c4ccccc4)CC3)c2)c1 [Example 48, cis-4-(1-{6-[(5-fluoro-4-methylpyridin-2-yl)amino]-4-methylpyridin-2-yl}-1H-imidazol-4-yl)-4-hydroxycyclohexyl benzoate] | ≤ 100 | 
5 | Cc1cc(Nc2cc(C)c(Cl)cn2)nc(-n2cnc([C@]3(O)CC[C@@H](OC(=O)c4ccccc4)CC3)c2)c1 [Example 49, cis-4-(1-{6-[(5-chloro-4-methylpyridin-2-yl)amino]-4-methylpyridin-2-yl}-1H-imidazol-4-yl)-4-hydroxycyclohexyl benzoate] | 100 to 1000 | 
6 | Cc1cc(Nc2cc(C3CC3)ccn2)nc(-n2cnc([C@]3(O)CC[C@@H](OC(=O)c4ccccc4)CC3)c2)c1 [Example 50, cis-4-(1-{6-[(4-cyclopropylpyridin-2-yl)amino]-4-methylpyridin-2-yl}-1H-imidazol-4-yl)-4-hydroxycyclohexyl benzoate] | ≤ 100 | 
7 | Cc1ccnc(Nc2cc(C)cc(-n3cnc([C@]4(O)CC[C@@H](OC(=O)c5ccccc5)CC4)c3)n2)c1 [Example 51, cis-4-hydroxy-4-(1-{4-methyl-6-[(4-methylpyridin-2-yl)amino]pyridin-2-yl}-1H-imidazol-4-yl)cyclohexyl benzoate] | ≤ 100 | 
8 | Cc1cc(Nc2cc(C(C)(C)C)ccn2)nc(-n2cnc([C@]3(O)CC[C@@H](OC(=O)c4ccccc4)CC3)c2)c1 [Example 52, cis-4-(1-{6-[(4-tert-butylpyridin-2-yl)amino]-4-methylpyridin-2-yl}-1H-imidazol-4-yl)-4-hydroxycyclohexyl benzoate] | ≤ 100 | 
9 | Cc1cc(Nc2nccc(C(F)(F)F)n2)cc(-n2cnc(C3(O)CCC(=O)CC3)c2)c1 [Example 53, 4-hydroxy-4-[1-(3-methyl-5-{[4-(trifluoromethyl)pyrimidin-2-yl]amino}phenyl)-1H-imidazol-4-yl]cyclohexanone] | ≤ 100 | 
10 | Cc1cc(Nc2nccc(C(F)(F)F)n2)cc(-n2cnc([C@]3(O)CC[C@H](O)[C@@H](C)C3)c2)c1 [Example 54, (1S,3S,4S)-3-methyl-1-[1-(3-methyl-5-{[4-(trifluoromethyl)pyrimidin-2-yl]amino}phenyl)-1H-imidazol-4-yl]cyclohexane-1,4-diol] | ≤ 100 | 
11 | Cc1cc(Nc2nccc(C(F)(F)F)n2)cc(-n2cnc([C@@]3(O)CC[C@H](O)[C@@H](C)C3)c2)c1 [Example 55, (1R,3S,4S)-3-methyl-1-[1-(3-methyl-5-{[4-(trifluoromethyl)pyrimidin-2-yl]amino}phenyl)-1H-imidazol-4-yl]cyclohexane-1,4-diol] | ≤ 100 | 
12 | Cc1cc(Nc2nccc(C(F)(F)F)n2)cc(-n2cnc([C@]3(O)CC[C@@H](O)[C@@H](C)C3)c2)c1 [Example 56, (1S,3S,4R)-3-methyl-1-[1-(3-methyl-5-{[4-(trifluoromethyl)pyrimidin-2-yl]amino}phenyl)-1H-imidazol-4-yl]cyclohexane-1,4-diol] | ≤ 100 | 
13 | Cc1cc(Nc2ncc(F)c(C)n2)cc(-n2cnc([C@]3(O)CC[C@@H](O)CC3)c2)c1 [Example 57, cis-1-(1-{3-[(5-fluoro-4-methylpyrimidin-2-yl)amino]-5-methylphenyl}-1H-imidazol-4-yl)cyclohexane-1,4-diol] | ≤ 100 | 
14 | Cc1cc(Nc2ncc(F)c(C)n2)cc(-n2cnc([C@]3(O)CC[C@@H](OC(=O)c4ccccc4)CC3)c2)c1 [Example 58, cis-4-(1-{3-[(5-fluoro-4-methylpyrimidin-2-yl)amino]-5-methylphenyl}-1H-imidazol-4-yl)-4-hydroxycyclohexyl benzoate] | 100 to 1000 | 
15 | Cc1cc(Nc2ncc(F)c(C3CC3)n2)cc(-n2cnc([C@]3(O)CC[C@@H](O)CC3)c2)c1 [Example 59, cis-1-(1-{3-[(4-cyclopropyl-5-fluoropyrimidin-2-yl)amino]-5-methylphenyl}-1H-imidazol-4-yl)cyclohexane-1,4-diol] | ≤ 100 | 
16 | Cc1cc(Nc2ncc(F)c(C3CC3)n2)cc(-n2cnc([C@]3(O)CC[C@@H](OC(=O)c4ccccc4)CC3)c2)c1 [Example 60, cis-4-(1-{3-[(4-cyclopropyl-5-fluoropyrimidin-2-yl)amino]-5-methylphenyl}-1H-imidazol-4-yl)-4-hydroxycyclohexyl benzoate] | 100 to 1000 | 
17 | Cc1cc(Nc2cc(C(F)(F)F)ccn2)nc(-n2cnc([C@]3(O)CC[C@H](O)CC3)c2)c1 [Example 61, trans-1-[1-(4-methyl-6-{[4-(trifluoromethyl)pyridin-2-yl]amino}pyridin-2-yl)-1H-imidazol-4-yl]cyclohexane-1,4-diol] | ≤ 100 | 
18 | Cc1cc(Nc2cc(C(F)(F)F)ccn2)nc(-n2cnc([C@]3(O)CC[C@@H](O)CC3)c2)c1 [Example 62, cis-1-[1-(4-methyl-6-{[4-(trifluoromethyl)pyridin-2-yl]amino}pyridin-2-yl)-1H-imidazol-4-yl]cyclohexane-1,4-diol] | ≤ 100 | 1.36

Results, then the compound that gave them:

Row | IC50 (read-out: rhSYK Activity) [nM] | IC50 (read-out: rhSYK IC50) [nM] | SMILES
19 | ≤ 100 |  | Cc1cc(Nc2nccc(C(F)(F)F)n2)cc(-n2cnc(C3(O)CCC(C(=O)O)CC3)c2)c1 (stereo not drawn) [Example 35, trans-4-hydroxy-4-[1-(3-methyl-5-[[4-(trifluoromethyl)pyrimidin-2-yl]amino}phenyl)-1H-imidazol-4-yl]cyclohexanecarboxylic acid]
20 | ≤ 100 |  | CCOC(=O)C1CCC(O)(c2cn(-c3cc(C)cc(Nc4nccc(C(F)(F)F)n4)c3)cn2)CC1 (stereo not drawn) [Example 36, Ethyl trans-4-hydroxy-4-[1-(3-methyl-5-{[4-(trifluoromethyl)pyrimidin-2-yl]amino}phenyl)-1H-imidazol-4-yl]-cyclohexanecarboxylate]
21 | ≤ 100 | 3.7 | Cc1cc(Nc2nccc(C(F)(F)F)n2)cc(-n2cnc([C@]3(O)CC[C@@H](O)CC3)c2)c1 [Example 37, Cis-1-[1-(3-methyl-5-{[4-(trifluoromethyl)pyrimidin-2-yl]amino}phenyl)-1H-imidazol-4-yl]cyclohexane-1,4-diol]
22 | ≤ 100 |  | Cc1cc(Nc2nccc(C)n2)cc(-n2cnc([C@]3(O)CC[C@@H](O)CC3)c2)c1 [Example 38, Cis-1-(1-{3-methyl-5-[(4-methylpyrimidin-2-yl)amino]phenyl}-1H-imidazol-4-yl)cyclohexane-1,4-diol]
23 | ≤ 100 |  | COc1ccnc(Nc2cc(C)cc(-n3cnc([C@]4(O)CC[C@@H](O)CC4)c3)c2)n1 [Example 39, cis-1-(1-{3-[(4-methoxypyrimidin-2-yl)amino]-5-methylphenyl}-1H-imidazol-4-yl)cyclohexane-1,4-diol]
24 | ≤ 100 |  | Cc1cc(Nc2nccc(C3CC3)n2)cc(-n2cnc([C@]3(O)CC[C@@H](O)CC3)c2)c1 [Example 40, cis-1-(1-{3-[(4-cyclopropylpyrimidin-2-yl)amino]-5-methylphenyl}-1H-imidazol-4-yl)cyclohexane-1,4-diol]
25 | ≤ 100 |  | COc1ccnc(Nc2cc(C)cc(-n3cnc(C4(O)CCC(OC(=O)c5ccccc5)CC4)c3)c2)n1 (stereo not drawn) [Example 41, cis-4-hydroxy-4-(1-{3-[(4-methoxypyrimidin-2-yl)amino]-5-methylphenyl}-1H-imidazol-4-yl)cyclohexyl benzoate]
26 | ≤ 100 |  | Cc1cc(Nc2nccc(C3CC3)n2)cc(-n2cnc([C@]3(O)CC[C@@H](OC(=O)c4ccccc4)CC3)c2)c1 [Example 42, cis-4-(1-{3-[(4-cyclopropylpyrimidin-2-yl)amino]-5-methylphenyl}-1H-imidazol-4-yl)-4-hydroxycyclohexyl benzoate]
27 | ≤ 100 |  | Cc1cc(Nc2cc(C)c(F)cn2)nc(-n2cnc([C@]3(O)CC[C@@H](O)CC3)c2)c1 [Example 43, cis-1-(1-{6-[(5-fluoro-4-methylpyridin-2-yl)amino]-4-methylpyridin-2-yl}-1H-imidazol-4-yl)cyclohexane-1,4-diol]
28 | ≤ 100 |  | Cc1cc(Nc2cc(C)c(Cl)cn2)nc(-n2cnc([C@]3(O)CC[C@@H](O)CC3)c2)c1 [Example 44, cis-1-(1-{6-[(5-chloro-4-methylpyridin-2-yl)amino]-4-methylpyridin-2-yl}-1H-imidazol-4-yl)cyclohexane-1,4-diol]
